Measured values: PubChem BioAssay (NCI)
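Protocol summary: plate cells (96-well), add compound at 5 concentrations, incubate 48 h, interpolate endpoints linearly. Here, GI50 denotes the concentration required for 50% inhibition of growth. TGI is the concentration that stops growth completely.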

Columns and labels:
Experiment in all cases: NCI tumour cell line growth inhibition, 48 h
SK-MEL-5 melanoma = test system: SK-MEL-5 melanoma
K-562 leukemia = test system: K-562 leukemia
UACC-62 melanoma = test system: UACC-62 melanoma
IGROV1 ovarian = test system: IGROV1 ovarian
HT29 colon = test system: HT29 colon
MALME-3M melanoma = test system: MALME-3M melanoma
SK-MEL-2 melanoma = test system: SK-MEL-2 melanoma
SK-OV-3 ovarian = test system: SK-OV-3 ovarian
LOX IMVI melanoma = test system: LOX IMVI melanoma
RXF 393 renal = test system: RXF 393 renal
RPMI-8226 leukemia = test system: RPMI-8226 leukemia
CAKI-1 renal = test system: CAKI-1 renal
MOLT-4 leukemia = test system: MOLT-4 leukemia
ACHN renal = test system: ACHN renal
HOP-62 NSCLC = test system: HOP-62 NSCLC
HCC-2998 colon = test system: HCC-2998 colon
NCI-H226 lung = test system: NCI-H226 lung
SNB-19 CNS = test system: SNB-19 CNS
A549 NSCLC = test system: A549 NSCLC
OVCAR-8 ovarian = test system: OVCAR-8 ovarian
SK-MEL-28 melanoma = test system: SK-MEL-28 melanoma
HCT-116 colon = test system: HCT-116 colon
NCI/ADR-RES ovarian = test system: NCI/ADR-RES ovarian
SF-268 CNS = test system: SF-268 CNS
SR leukemia = test system: SR leukemia
PC-3 prostate = test system: PC-3 prostate
SN12C renal = test system: SN12C renal
DU-145 prostate = test system: DU-145 prostate
U251 CNS = test system: U251 CNS
NCI-H522 lung = test system: NCI-H522 lung
HL-60(TB) leukemia = test system: HL-60(TB) leukemia
A498 renal = test system: A498 renal
T-47D breast = test system: T-47D breast
SF-539 CNS = test system: SF-539 CNS
UO-31 renal = test system: UO-31 renal
SNB-75 CNS = test system: SNB-75 CNS
BT-549 breast = test system: BT-549 breast
MCF7 breast = test system: MCF7 breast
SW-620 colon = test system: SW-620 colon
HOP-92 NSCLC = test system: HOP-92 NSCLC
OVCAR-4 ovarian = test system: OVCAR-4 ovarian
NCI-H460 lung = test system: NCI-H460 lung
MDA-MB-231 breast = test system: MDA-MB-231 breast
786-0 renal = test system: 786-0 renal
HCT-15 colon = test system: HCT-15 colon
CCRF-CEM leukemia = test system: CCRF-CEM leukemia
OVCAR-5 ovarian = test system: OVCAR-5 ovarian
KM12 colon = test system: KM12 colon
COLO 205 colon = test system: COLO 205 colon
NCI-H23 lung = test system: NCI-H23 lung
EKVX NSCLC = test system: EKVX NSCLC
SF-295 CNS = test system: SF-295 CNS
TK-10 renal = test system: TK-10 renal
M14 melanoma = test system: M14 melanoma
HS 578T breast = test system: HS 578T breast
UACC-257 melanoma = test system: UACC-257 melanoma
MDA-MB-435 = test system: MDA-MB-435

Question: What does the source list for `O=C(NNc1nc2cc(F)cc(F)c2n2cccc12)c1cnccn1`?
Answer: GI50 (SK-MEL-5 melanoma): 1050 nM; TGI (SK-MEL-5 melanoma): 5.76 µM; GI50 (K-562 leukemia): 364 nM; TGI (K-562 leukemia): > 100 µM; GI50 (UACC-62 melanoma): 407 nM; TGI (UACC-62 melanoma): 3.85 µM; GI50 (IGROV1 ovarian): 206 nM; TGI (IGROV1 ovarian): 10.7 µM; GI50 (HT29 colon): 571 nM; TGI (HT29 colon): 8.73 µM; GI50 (MALME-3M melanoma): 904 nM; TGI (MALME-3M melanoma): 10.4 µM; GI50 (SK-MEL-2 melanoma): 893 nM; TGI (SK-MEL-2 melanoma): 4.37 µM; GI50 (SK-OV-3 ovarian): 539 nM; TGI (SK-OV-3 ovarian): 7.27 µM; GI50 (LOX IMVI melanoma): 211 nM; TGI (LOX IMVI melanoma): 5.93 µM; GI50 (RXF 393 renal): 659 nM; TGI (RXF 393 renal): 4.77 µM; GI50 (RPMI-8226 leukemia): 379 nM; TGI (RPMI-8226 leukemia): > 100 µM; GI50 (CAKI-1 renal): 340 nM; TGI (CAKI-1 renal): 6.66 µM; GI50 (MOLT-4 leukemia): 291 nM; TGI (MOLT-4 leukemia): > 100 µM; GI50 (ACHN renal): 239 nM; TGI (ACHN renal): 10.6 µM; GI50 (HOP-62 NSCLC): 147 nM; TGI (HOP-62 NSCLC): 4.17 µM; GI50 (HCC-2998 colon): 564 nM; TGI (HCC-2998 colon): 14.9 µM; GI50 (NCI-H226 lung): 1120 nM; TGI (NCI-H226 lung): 6.89 µM; GI50 (SNB-19 CNS): 426 nM; TGI (SNB-19 CNS): 16.9 µM; GI50 (A549 NSCLC): 288 nM; TGI (A549 NSCLC): 11.3 µM; GI50 (OVCAR-8 ovarian): 279 nM; TGI (OVCAR-8 ovarian): 4.91 µM; GI50 (SK-MEL-28 melanoma): 549 nM; TGI (SK-MEL-28 melanoma): 13.5 µM; GI50 (HCT-116 colon): 297 nM; TGI (HCT-116 colon): 6.79 µM; GI50 (NCI/ADR-RES ovarian): 278 nM; TGI (NCI/ADR-RES ovarian): 5.22 µM; GI50 (SF-268 CNS): 365 nM; TGI (SF-268 CNS): 14.5 µM; GI50 (SR leukemia): 80.1 nM; TGI (SR leukemia): > 87.8 µM; GI50 (PC-3 prostate): 448 nM; TGI (PC-3 prostate): 13.5 µM; GI50 (SN12C renal): 641 nM; TGI (SN12C renal): 15 µM; GI50 (DU-145 prostate): 457 nM; TGI (DU-145 prostate): 13.7 µM; GI50 (U251 CNS): 172 nM; TGI (U251 CNS): 8.92 µM; GI50 (NCI-H522 lung): 392 nM; TGI (NCI-H522 lung): 7.5 µM; GI50 (HL-60(TB) leukemia): 263 nM; GI50 (A498 renal): 1370 nM; TGI (A498 renal): 5.57 µM; GI50 (T-47D breast): 403 nM; TGI (T-47D breast): 12.6 µM; GI50 (SF-539 CNS): 436 nM; TGI (SF-539 CNS): 10.3 µM; GI50 (UO-31 renal): 107 nM; TGI (UO-31 renal): 2930 nM; GI50 (SNB-75 CNS): 1130 nM; TGI (SNB-75 CNS): 9.37 µM; GI50 (BT-549 breast): 1120 nM; TGI (BT-549 breast): 7.68 µM; GI50 (MCF7 breast): 353 nM; TGI (MCF7 breast): 7.61 µM; GI50 (SW-620 colon): 402 nM; TGI (SW-620 colon): 14.4 µM; GI50 (HOP-92 NSCLC): 851 nM; TGI (HOP-92 NSCLC): 7.35 µM; GI50 (OVCAR-4 ovarian): 302 nM; TGI (OVCAR-4 ovarian): 8.99 µM; GI50 (NCI-H460 lung): 178 nM; TGI (NCI-H460 lung): 3.01 µM; GI50 (MDA-MB-231 breast): 807 nM; TGI (MDA-MB-231 breast): 12.3 µM; GI50 (786-0 renal): 371 nM; TGI (786-0 renal): 4.02 µM; GI50 (HCT-15 colon): 106 nM; TGI (HCT-15 colon): 21.3 µM; GI50 (CCRF-CEM leukemia): 163 nM; TGI (CCRF-CEM leukemia): > 100 µM; GI50 (OVCAR-5 ovarian): 715 nM; TGI (OVCAR-5 ovarian): 14.4 µM; GI50 (KM12 colon): 311 nM; TGI (KM12 colon): 12.6 µM; GI50 (COLO 205 colon): 324 nM; TGI (COLO 205 colon): 4.56 µM; GI50 (NCI-H23 lung): 872 nM; TGI (NCI-H23 lung): 15.8 µM; GI50 (EKVX NSCLC): 320 nM; TGI (EKVX NSCLC): 12 µM; GI50 (SF-295 CNS): 250 nM; TGI (SF-295 CNS): 6.45 µM; GI50 (TK-10 renal): 613 nM; TGI (TK-10 renal): 10.5 µM; GI50 (M14 melanoma): 279 nM; TGI (M14 melanoma): 2850 nM; GI50 (HS 578T breast): 1740 nM; TGI (HS 578T breast): 24.1 µM; GI50 (UACC-257 melanoma): 587 nM; TGI (UACC-257 melanoma): 3.43 µM; GI50 (MDA-MB-435): 610 nM; TGI (MDA-MB-435): 13.5 µM
